Laboratory results reported in patent US8278100B2, “Lasonolide compounds as reagents for inducing premature chromosome condensation and methods for treating disorders” (The United States of America, as Represented by the …, priority 2008, dated 2012).
Entries after “also recorded” stand apart in the source; their conditions may differ.

How the values were obtained:
[1] = tested on: human lymphocytes; experiment: PCC induction and PI staining; type: cell-based; conditions: 200 nM Lasonolide A, without additional reagents
[2] = tested on: Acetylated-H3K9; experiment: Western blot; type: cell-based
Method: (§1) Protein levels were measured by Western blotting with corresponding specific primary antibodies, including those against Cdc2 p34(Santa Cruz), cyclinB1 (Santa Cruz) (FIG. 4A), Anti-Acetylated-H3K9 (Upstate), phosphorylated-H3 Ser28 (Cell signaling). GAPDH was as the loading control.

[3] = tested on: cyclinB1; experiment: Western blot; type: cell-based
Method: as §1

[4] = tested on: phosphorylated-H3 Ser28; experiment: Western blot; type: cell-based
Method: as §1

[5] = tested on: MDA-MB-231 cells; experiment: Cell cycle analysis; type: cell-based, human; conditions: 24 h treatment
Method: (§2) After treatment, cells were collected, washed twice with ice-cold PBS, and fixed overnight with 70% precooled (−20° C.) ethanol. Fixed cells were resuspended in PBS containing 0.02 mg/mL RNase A (Roche, USA) and incubated at 37° C. for 15 min. Next, the cells were stained with 0.01 mg/mL propidium iodide (Sigma) in the dark at room temperature for 10 min. The DNA content was analyzed by flow cytometry using a FACSCalibur (Becton Dickinson, Sunnyvale, Calif.) with Cellquest and Modfit LT3.0 software (Becton Dickinson) (FIGS. 1D & 2A).

[6] = tested on: HT 29 cells; experiment: Cell cycle analysis; type: cell-based; conditions: 24 h treatment
Method: as §2

[7] = tested on: MCF-7 cells; experiment: Cell cycle analysis; type: cell-based; conditions: 24 h treatment
Method: as §2

[8] = tested on: HCT 116 cells; experiment: Cell cycle analysis; type: cell-based; conditions: 24 h treatment
Method: as §2

[9] = tested on: chromosome condensation in each phase of the cell cycle; experiment: Chromosome spread assay; type: cell-based
Method: After the induction of PCC by Lasonolide A, cells were incubated in hypotonic solution (10 mM Tris-HCl [ph 7.4], 40 mM glycerol, 20 mM NaCl, 1 mM CaCl2, 0.5 mM MgCl2) at 37° C. for 15 min. Then followed with cytospining at 1,800 rpm for 10 min and normal PI staining as above (FIG. 1E).

[10] = tested on: MDA-MB-231 cells; experiment: Cell adhesion assay; type: cell-based, human
Method: The effect of Lasonolide A on the extracellular matrix-induced cell adhesion was determined as follows. Fibronectin or collagen was diluted in sterile water and applied to 96-well plates overnight at 4° C. Nonspecific binding sites were blocked with 1% bovine serum albumin for 1 h at room temperature. Breast cancer MDA-MB-231 cells were serum starved for 45 min, detached with 2 mmol/L EDTA in PBS, plated in triplicate onto wells in serum-free medium with or without Lasonolide A, and allowed to adhere for 1 h at 37° C. Nonadherent cells were washed away and adherent cells were fixed with 4% paraformaldehyde and stained with 0.1% crystal violet in 2% methanol. Following extensive washing with tap water, dye was extracted with 10% acetic acid and quantified by measuring absorbance at 595 nm on a multiwell spectrophotometer (VersaMax, Molecular Devices). (FIGS. 6A, 6B, & 6D)

[11] = tested on: MCF-7 cells; experiment: BrdU incorporation; type: cell-based
Method: (§3) A number of cells (5×10^5) were pulse-labeled with 50 μmol/L BrdU (Calbiochem, La Jolla, Calif.) for 30 minutes. Cells were collected, fixed in 70% ethanol at 4° C., washed with PBS, resuspended in 3 mL 2 mol/L HCl/0.5% Triton X-100, and left at room temperature for 30 minutes. Cells were spun down after adding 6 mL 0.1 M sodium borate (pH 8.5). Pellets were washed with PBS/0.5% Tween-20 twice, then resuspended in 15 μL FITC-conjuncted anti-BrdU antibody (Becton Dickinson, Franklin Lakes, N.J.). After incubation with the anti-BrdU antibody at room temperature for 60 minutes, pellets were washed once with PBS, and resuspended in 500 μL of PI solution (50 μg/mL PI and 50 μg/mL RNase). Analyses were done with a FACScan flow cytometer (Becton Dickinson, San Jose, Calif.) (FIG. 2B).

[12] = tested on: MDA-MB-231 cells; experiment: BrdU incorporation; type: cell-based, human
Method: as §3

[13] = tested on: CA 46 cells; experiment: BrdU incorporation; type: cell-based, human
Method: as §3

`C=C(CCC(C)C)COC(=O)[C@H](O)C/C=C\C[C@@H]1O[C@@H]2/C=C/C/C=C/C(C)=C\[C@H]3O[C@@H](C/C=C/C=C/C(=O)O[C@H](C2)[C@@]1(C)CO)C[C@H](O)[C@H]3C` [Lasonolide A] was tested, and the “lymphocytes going to PCC” value [1] was 35.5%, the “acetylation of histone H3” value [2] was “decreased the acetylation of histone H3 Lysine 9; also recorded: decreased the acetylation of H3 (Arg9)” and the “H3 acetylation induced by the HDAC inhibitor SAHA” value ([2]; with SAHA) was “attenuated the enhancement of H3 acetylation”. For the same compound, the “protein level of cyclinB1” value [3] was “decreased the protein level of cyclinB1”, the “phosphorylation of H3 (Ser28)” value [4] was “increased the phosphorylation of H3 (Ser28)” and the cell cycle arrest [5] was “induced cell cycle arrest at G2/M phase”. The cell cycle arrest [6] was “G2/M phase arrest”, the cell cycle arrest [7] was “G2/M phase arrest” and the cell cycle arrest [8] was “G2/M phase arrest”. The “cell cycle phases in which PCC is induced” value [9] was “induce PCC in each phases of cell cycle; also recorded: induce PCC in each phase of the cell cycle”, the “attachment of cells to collagen I” value ([10]; collagen I) was “blocked; also recorded: reduced” and the “attachment of cells to fibronectin” value ([10]; fibronectin) was “blocked; also recorded: reduced”. The “cell adhesion / detachment” value ([10]; low dose, short-time treatment, nanomolar concentration) was “inhibited adhesion; also recorded: detached cells into suspension”, the “DNA replication (BrdU incorporation)” value [11] was “decelerated DNA replication” and the “DNA replication (BrdU incorporation)” value [12] was “decelerated DNA replication”. The “DNA replication (BrdU incorporation)” value [13] was “decelerated DNA replication”.
